Data as given in the NIST ThermoML archive (doi:10.1016/j.jct.2011.11.021).
± gives the expanded uncertainty stated by the source.

Test: activity coefficient (dimensionless); of the first substance listed, at infinite dilution; xn = mol fraction of the nth substance listed
Conditions: Liquid, Chromatography, x1 = 0

Structure (SMILES)	activity coefficient (318.15 K)	activity coefficient (328.15 K)	activity coefficient (338.15 K)	activity coefficient (348.15 K)	activity coefficient (358.15 K)	activity coefficient (368.15 K)
CCC(=O)OC [methyl propanoate] + COCC[N+]1(C)CCOCC1.O=S(=O)([N-]S(=O)(=O)C(F)(F)F)C(F)(F)F	0.949 ± 0.06	0.966 ± 0.061	0.982 ± 0.062	0.998 ± 0.062	1.01 ± 0.06	1.03 ± 0.06
CC1CCCCC1 [methylcyclohexane] + COCC[N+]1(C)CCOCC1.O=S(=O)([N-]S(=O)(=O)C(F)(F)F)C(F)(F)F	27.6 ± 1.9	24.8 ± 1.7	22.8 ± 1.6	20.9 ± 1.4	19.2 ± 1.3	17.7 ± 1.2
CCCCCCCCC [nonane] + COCC[N+]1(C)CCOCC1.O=S(=O)([N-]S(=O)(=O)C(F)(F)F)C(F)(F)F	125 ± 9	108 ± 7	95.8 ± 6.6	85.6 ± 5.9	76.3 ± 5.2	68.7 ± 4.7
C=CCCCCCC [oct-1-ene] + COCC[N+]1(C)CCOCC1.O=S(=O)([N-]S(=O)(=O)C(F)(F)F)C(F)(F)F	38.6 ± 2.6	34.9 ± 2.4	32.5 ± 2.2	30.1 ± 2.1	27.5 ± 1.9	25.9 ± 1.8
CCCCCCCC [octane] + COCC[N+]1(C)CCOCC1.O=S(=O)([N-]S(=O)(=O)C(F)(F)F)C(F)(F)F	82.1 ± 5.6	71.6 ± 4.9	64.6 ± 4.4	58.4 ± 4	51.7 ± 3.5	47.3 ± 3.2
CCCC(C)=O [pentan-2-one] + COCC[N+]1(C)CCOCC1.O=S(=O)([N-]S(=O)(=O)C(F)(F)F)C(F)(F)F	0.88 ± 0.056	0.89 ± 0.057	0.9 ± 0.057	0.91 ± 0.058	0.918 ± 0.058	0.925 ± 0.058
CCC(=O)CC [pentan-3-one] + COCC[N+]1(C)CCOCC1.O=S(=O)([N-]S(=O)(=O)C(F)(F)F)C(F)(F)F	0.895 ± 0.057	0.912 ± 0.058	0.927 ± 0.059	0.941 ± 0.059	0.952 ± 0.06	0.967 ± 0.061
CCCCC [pentane] + COCC[N+]1(C)CCOCC1.O=S(=O)([N-]S(=O)(=O)C(F)(F)F)C(F)(F)F	25 ± 1.7	22.5 ± 1.5	20.6 ± 1.4	19 ± 1.3	17.4 ± 1.2	16.3 ± 1.1
CCCO [propan-1-ol] + COCC[N+]1(C)CCOCC1.O=S(=O)([N-]S(=O)(=O)C(F)(F)F)C(F)(F)F	2.39 ± 0.16	2.14 ± 0.15	1.96 ± 0.13	1.79 ± 0.12	1.63 ± 0.11	1.52 ± 0.1
CC(C)O [propan-2-ol] + COCC[N+]1(C)CCOCC1.O=S(=O)([N-]S(=O)(=O)C(F)(F)F)C(F)(F)F	2.17 ± 0.15	1.95 ± 0.13	1.79 ± 0.12	1.63 ± 0.11	1.5 ± 0.1	1.4 ± 0.09
c1ccncc1 [pyridine] + COCC[N+]1(C)CCOCC1.O=S(=O)([N-]S(=O)(=O)C(F)(F)F)C(F)(F)F	0.64 ± 0.044	0.644 ± 0.044	0.648 ± 0.044	0.651 ± 0.045	0.654 ± 0.045	0.658 ± 0.045
C=Cc1ccccc1 [styrene] + COCC[N+]1(C)CCOCC1.O=S(=O)([N-]S(=O)(=O)C(F)(F)F)C(F)(F)F	1.77 ± 0.12	1.77 ± 0.12	1.76 ± 0.12	1.76 ± 0.12	1.76 ± 0.12	1.76 ± 0.12
C1CCOC1 [tetrahydrofuran] + COCC[N+]1(C)CCOCC1.O=S(=O)([N-]S(=O)(=O)C(F)(F)F)C(F)(F)F	0.858 ± 0.055	0.867 ± 0.055	0.873 ± 0.056	0.882 ± 0.056	0.888 ± 0.057	0.895 ± 0.057
c1ccsc1 [thiophene] + COCC[N+]1(C)CCOCC1.O=S(=O)([N-]S(=O)(=O)C(F)(F)F)C(F)(F)F	1.09 ± 0.07	1.08 ± 0.07	1.08 ± 0.07	1.08 ± 0.07	1.08 ± 0.07	1.08 ± 0.07
Cc1ccccc1 [toluene] + COCC[N+]1(C)CCOCC1.O=S(=O)([N-]S(=O)(=O)C(F)(F)F)C(F)(F)F	2.01 ± 0.14	2.01 ± 0.14	2 ± 0.14	1.99 ± 0.14	1.98 ± 0.13	1.97 ± 0.13
O [water] + COCC[N+]1(C)CCOCC1.O=S(=O)([N-]S(=O)(=O)C(F)(F)F)C(F)(F)F	2.49 ± 0.17	2.17 ± 0.15	1.94 ± 0.13	1.73 ± 0.12	1.55 ± 0.1	1.41 ± 0.09
